Assay results as given in patent US6147097A, “Imidazole derivatives as anti-HIV agents” (Shionogi & Co., Ltd., priority 1994, dated 2000).
Values after ≈ are worked out from the molar mass of the structure shown. Where two headings read alike, the source gives them in different places.

Assays:
[1] = tested on: HIV (HTLV-IIIB strain); assay: microbe, parasite or virus in culture; assay type: cell-based; settings: Human immunodeficiency virus 1, IIIB, MT4, 120 h
Procedure, shortened: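 MT-4 cells (3.5×10^4 per well) were infected with HIV at 60 pfu per well in the presence of diluted compound and incubated for 5 days at 37° C. Surviving cells were then measured by MTT reduction, with the formazan dissolved in acidified isopropanol containing Triton X-100.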

[2] = molecular target: T1, purified recombinant HIV-1 reverse transcriptase (Human immunodeficiency virus type 1 group M subtype B, UniProt P04585); assay: reverse transcriptase inhibition, poly(rA)/(dT) template primer, [3H]dTTP uptake; assay type: biochemical
T1 construct: purified recombinant HIV-1 reverse transcriptase; made in house; host or cells: Escherichia coli
Procedure, shortened: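 Inhibition reported as percent reduction of [3H]dTTP incorporation relative to solvent control, after 1 h at 37 °C at pH 8.3. Recombinant RT from E. coli, poly(rA) template with oligo(dT) primer, 4 μM unlabeled dTTP as substrate; product collected on DEAE filter mats.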

[3] = cytotoxicity in MT-4 cells (MTT, culture medium in place of HIV); assay type: cell-based; settings: human
Procedure, shortened: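 MT-4 cells (3.5×10^4 per well) exposed to diluted compound with culture medium added instead of HIV, 5 days at 37° C in CO2. MTT added for 1 h, formazan dissolved in Triton X-100/acidified isopropanol. OD read at 560 nm (690 nm reference) and compared with control.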

[4] = MT-4 cells, 60 pfu HIV per well, 37° C., 5 days, MTT, Tables 1 and 2, read-out: EC50
[5] = MT-4 cells, no virus, 37° C., 5 days, MTT, Table 3, read-out: CC50

Structure (SMILES): COC(=O)NCc1nc(C(C)C)c(Sc2cc(Cl)cc(Cl)c2)n1C [Compound I-91, 5-(3,5-dichlorophenylthio)-4-isopropyl-1-methyl-2-methoxycarbonylaminomethyl-1H-imidazole]
- EC50 [1, 4]: 0.06 µg/mL (≈ 0.155 µM)
- IC50 [2]: 0.876 µM
- CC50 at 120 h [3, 5]: 6.3 to 12.5 µg/mL (≈ 16.2 to 32.2 µM)

Structure (SMILES): CC(C)c1nc(COC(N)=O)n(Cc2cccnc2)c1Sc1cc(Cl)cc(Cl)c1 [Compound I-92, 2-carbamoyloxymethyl-5-(3,5-dichlorophenylthio)-4-isopropyl-1-(pyridin-3-yl)methyl-1H-imidazole]
- EC50 [1]: 0.001 µg/mL (≈ 0.00222 µM)
- IC50 [2]: 0.775 µM
- CC50 at 120 h ([3]; mt-4 cells): 12.5 to 24 µg/mL (≈ 27.7 to 53.2 µM)

Structure (SMILES): CC(C)c1nc(CN)n(Cc2cccnc2)c1Sc1cc(Cl)cc(Cl)c1 [Compound I-94, 2-aminomethyl-5-(3,5-dichlorophenylthio)-4-isopropyl-1-(pyridin-3-yl)methyl-1H-imidazole]
- EC50 [1, 4]: 0.03 µg/mL (≈ 0.0736 µM)
- IC50 [2]: 4.66 µM
- CC50 at 120 h [3, 5]: 12.5 to 25 µg/mL (≈ 30.7 to 61.4 µM)

Structure (SMILES): CC(C)c1nc(CN)n(Cc2ccccn2)c1Sc1cc(Cl)cc(Cl)c1 [Compound I-95]
- EC50 [1, 4]: 0.03 to 0.06 µg/mL (≈ 0.0736 to 0.147 µM)
- IC50 [2]: 1.74 µM
- CC50 at 120 h ([3]; mt-4 cells): 6.3 µg/mL (≈ 15.5 µM)

Structure (SMILES): COC(=O)C(C)c1nc(C)n(C)c1Sc1cc(C)cc(C)c1 (stereo not drawn) [Compound I-96, methyl 2-[1,2-dimethyl-5-(3,5-dimethylphenylthio)-1H-imidazol-4-yl]propionate]
- EC50 [1, 4]: 0.03 µg/mL (≈ 0.0942 µM)
- IC50 [2]: 14.4 µM
- CC50 at 120 h [3, 5]: 10 to 100 µg/mL (≈ 31.4 to 314 µM)

Structure (SMILES): Cc1nc(C(C)C#N)c(Sc2cccc(Cl)c2)n1C (stereo not drawn) [Compound I-97, 2-[5-(3-chlorophenylthio)-1,2-dimethyl-1H-imidazol-4-yl]propiononitrile]
- EC50 [1, 4]: 0.06 to 0.13 µg/mL (≈ 0.206 to 0.445 µM)
- IC50 [2]: 25.4 µM
- CC50 at 120 h [3, 5]: 10 to 100 µg/mL (≈ 34.3 to 343 µM)

Structure (SMILES): CC(C#N)c1nc(COC(N)=O)n(C)c1Sc1cccc(Cl)c1 (stereo not drawn) [Compound I-98, 2-[2-carbamoyloxymethyl-5-(3-chlorophenylthio)-1-methyl-1H-imidazol-4-yl]propiononitrile]
- EC50 [1]: 1 µg/mL (≈ 2.85 µM)
- IC50 [2]: 105 µM
- CC50 at 120 h [3, 5]: 10 to 100 µg/mL (≈ 28.5 to 285 µM)

Structure (SMILES): Cc1nc(C(C)C(=O)O)c(Sc2cccc(Cl)c2)n1C (stereo not drawn) [Compound I-99]
- EC50 [1, 4]: 6.3 µg/mL (≈ 20.3 µM)
- IC50 [2]: > 322 µM
- CC50 at 120 h [3, 5]: > 100 µg/mL

Structure (SMILES): Cc1nc(C(C)C)c(Cc2cc(Cl)cc(Cl)c2)n1C [Compound I-100, 5-(3,5-dichlorobenzyl)-1,2-dimethyl-4-isopropyl-1H-imidazole]
- EC50 [1, 4]: 1 µg/mL (≈ 3.36 µM)
- IC50 [2]: 42.1 µM
- CC50 at 120 h [3, 5]: 12.5 µg/mL (≈ 42.1 µM)

Structure (SMILES): CC(C)c1nc(CN)n(C)c1Cc1cc(Cl)cc(Cl)c1 [Compound I-101, 2-aminomethyl-5-(3,5-dichlorobenzyl)-4-isopropyl-1-methyl-1H-imidazole]
- EC50 [1, 4]: 1 µg/mL (≈ 3.2 µM)
- IC50 [2]: 80.7 µM
- CC50 at 120 h [3, 5]: 10 to 100 µg/mL (≈ 32 to 320 µM)

Structure (SMILES): CC(C)c1nc(CO)n(C)c1Cc1cccc(Cl)c1 [Compound I-102, [5-(3-chlorobezyl)-4-isopropyl-1-methyl-1H-imidazol-2-yl]methanol]
- EC50 [1, 4]: 0.5 to 1 µg/mL (≈ 1.79 to 3.59 µM)
- IC50 [2]: 86.4 µM
- CC50 at 120 h [3, 5]: 1 to 10 µg/mL (≈ 3.59 to 35.9 µM)

Structure (SMILES): CC(C)c1nc(COC(N)=O)n(C)c1Cc1cc(Cl)cc(Cl)c1 [Compound I-103, 2-carbamoyloxymethyl-5-(3,5-dichlorobenzyl)-4-isopropyl-1-methyl-1H-imidazole]
- EC50 [1]: 0.5 µg/mL (≈ 1.4 µM)
- IC50 [2]: 19.1 µM
- CC50 at 120 h [3, 5]: 10 to 100 µg/mL (≈ 28.1 to 281 µM)

Structure (SMILES): Cc1cc(C)cc([S+]([O-])c2c(C(C)C)nc(C)n2C)c1 (stereo not drawn) [Compound I-104, 5-(3,5-dimethylphenylsulfinyl)-4-isopropyl-1,2-dimethyl-1H-imidazole]
- EC50 [1, 4]: 1 to 10 µg/mL (≈ 3.44 to 34.4 µM)
- IC50 [2]: > 344 µM
- CC50 at 120 h [3, 5]: 10 to 100 µg/mL (≈ 34.4 to 344 µM)

Structure (SMILES): Cc1cc(C)cc(S(=O)(=O)c2c(C(C)C)nc(C)n2C)c1 [Compound I-105, 5-(3,5-dimethylphenylsulfonyl)-4-isopropyl-1,2-dimethyl-1H-imidazole]
- EC50 [1, 4]: 0.5 µg/mL (≈ 1.63 µM)
- IC50 [2]: 171 µM
- CC50 at 120 h [3, 5]: 50 to 100 µg/mL (≈ 163 to 326 µM)

Structure (SMILES): Cc1cc(C)cc([S+]([O-])c2c(C(C)C)nc(CO)n2C)c1 (stereo not drawn) [Compound I-106, [5-(3,5-dimethylphenylsulfinyl)-4-isopropyl-1-methyl-1H-imidazol-2-yl]methanol]
- EC50 [1, 4]: 1 to 10 µg/mL (≈ 3.26 to 32.6 µM)
- IC50 [2]: > 326 µM
- CC50 at 120 h [3, 5]: 100 µg/mL (≈ 326 µM)
